Test results taken from PMC8400955 (Pharmaceuticals, 2021).

Columns and labels:
Assay type in all cases: in vitro ADME
CYP2C19 = CYP2C19 (Homo sapiens, UniProt P33261); assay: CYP inhibition in human liver microsomes, CYP2C19; details: HLM, marker substrate Mephenytoin
Experimental: . The inhibition of CYP2B6 and 3A4 (when midazolam was used as the substrate) by ZB716 was not observed. The inhibitory potential of ZB716 on human CYP enzyme activities appears relatively low.
The final concentrations of ZB716 in the incubation system were 0, 0.05, 0.15, 0.5, 1.5, 5, and 15 µM (final organic solvent concentration ≤ 1%). […] . […] The concentrations of the isoform-specific metabolites derived from marker substrates were measured by UPLC–MS/MS. The IC50 values were calculated from the percentages of the rate of the metabolite formation relative to non-inhibited controls vs. the concentrations of ZB716 or positive control inhibitors. All incubations were performed in triplicate. The mean of the enzyme activity (% of non-inhibited control) for each concentration was plotted against the log inhibitor concentration, and fitted to an IC50 curve.

dog plasma proteins = assay: Plasma protein binding by equilibrium dialysis, dog; details: for Remaining: 6 h
Experimental: (§1) The in vitro binding of ZB716 to plasma proteins was determined by equilibrium dialysis technique in mouse, rat, dog, monkey, and human plasma (EDTA-K2 as anticoagulant), over the concentration range of 0.1–10 μM. The free concentration of ZB716 was below the lower limit of quantitation at 0.1, 1, and 10 μM in human, monkey, dog, rat, and mouse plasma.
(§2) The equilibrium dialysis method was used to investigate the in vitro binding of ZB716 to human, monkey, dog, rat, and mouse plasma proteins. The dialysis phosphate buffer solution (100 mM, pH 7.4) and plasma samples containing 0.1, 1, and 10 μM of ZB716 were added to separate chambers of dialysis wells of the HTDialysis device. The dialysis plate was placed in an incubator at 37 °C with 5% CO2 at approximately 100 rpm for 6 h. After incubation, the seal was removed, and 50 μL each of post-dialysis samples was pipetted from both the buffer and plasma chambers into fresh 96-well plates. The samples were analyzed via UPLC–MS/MS. The bound fraction, unbound fraction, recovery (%), and remaining (%) were calculated by Equations (2)–(5):%Unbound = (Conc.buffer chamber/Conc.plasma chamber) × 100(2) %Bound = 100% − %Unbound (3) %Recovery = (Conc.buffer chamber + Conc.plasma chamber)/Conc.Total sample × 100 (4) %Remaining = Conc.6h/Conc.0h × 100 (5)

[1] = as above; details: plasma (EDTA-K2 as anticoagulant)
Experimental: as §1, §2

Chain of CYP2C19 (P33261 whole entry): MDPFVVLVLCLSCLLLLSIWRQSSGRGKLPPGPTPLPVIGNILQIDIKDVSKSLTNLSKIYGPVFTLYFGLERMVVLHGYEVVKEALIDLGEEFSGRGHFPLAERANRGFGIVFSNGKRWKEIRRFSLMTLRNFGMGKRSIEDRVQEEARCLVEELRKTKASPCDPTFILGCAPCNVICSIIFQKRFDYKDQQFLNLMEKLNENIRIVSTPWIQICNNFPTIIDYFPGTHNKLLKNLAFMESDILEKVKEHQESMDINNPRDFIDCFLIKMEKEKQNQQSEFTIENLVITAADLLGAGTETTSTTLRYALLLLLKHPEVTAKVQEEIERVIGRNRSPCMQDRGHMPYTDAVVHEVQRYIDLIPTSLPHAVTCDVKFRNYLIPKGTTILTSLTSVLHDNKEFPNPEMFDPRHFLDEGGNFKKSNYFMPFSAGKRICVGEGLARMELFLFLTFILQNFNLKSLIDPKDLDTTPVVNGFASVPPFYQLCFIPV

## C[C@]12CC[C@@H]3c4ccc(B(O)O)cc4C[C@@H](CCCCCCCCC[S+]([O-])CCCC(F)(F)C(F)(F)F)[C@H]3[C@@H]1CC[C@@H]2O (stereo partly drawn) [ZB716, fulvestrant-3-boronic acid]
CYP2C19
  IC50: 2200 nM
Dog plasma proteins; 0.1 μM
  Bound: >95.6%
  Remaining: 39.1 ± 1.8%
Dog plasma proteins; 1 μM
  Bound: >99.6%
  Unbound: <0.373%
  Remaining: 53.2 ± 4.4%
Dog plasma proteins; 10 μM
  Bound: >99.96%
  Unbound: <0.0412%
  Remaining: 65.2 ± 4.3%
[1]; pH 7.4, 0.1 μM
  recovery at 6 h, 0.1 μM: < 63.5%
[1]; pH 7.4, 1 μM
  recovery at 6 h, 1 μM: < 64.9%
[1]; pH 7.4, 10 μM
  recovery at 6 h, 10 μM: < 68.7%
